# From patent publication US10874719B2, “Nucleotide phosphate dissipation as a treatment for vascular disorders” (THE REGENTS OF THE UNIVERSITY OF MICHIGAN, priority 2007, dated 2020)
# How the values were obtained:
# IFN-γ and IL-2 mRNA = assay: Tracheal allograft T-helper 1 cytokine mRNA, real time PCR; type: in vivo, mouse; settings: compared with vehicle; for expression of IFN-γ mRNA: wild type allograft
# Source text: A heterotopic model, characterized by epithelial and subepithelial lymphocyte infiltration by one was also used (Lama, et al, Am J Pathol 169: 47-60, 2006). Donor tracheas were harvested as described above. The trachea was inserted in a subcutaneous pouch created after a 3-mm incision and blunt dissection in the back of the neck. The skin pocket was closed with a size 5.0 nylon suture.
# Total RNA was extracted from frozen each mouse tracheas using RNeasy Mini Protocol for Tissues (Qiagen, Valencia, Calif.) and reverse transcribed using a High Capacity cDNA Archive Kit (ABI, Foster City, Calif.), in each case according to the manufacturer's instructions. One microgram of sample RNA was transcribed to cDNA. Real-time PCR was performed on an Applied Biosystems 7000 Real-Time PCR System (ABI) data collection system, and analyses were performed using the accompanying software.
# PCR fluorogenic probes for all the target genes and the endogenous reference were purchased as TaqMan® Gene Expression Assays (ABI).
# A2A receptor agonist 2-p-(2-carboxyethyl) phenethylamino-5′-N-ethylcarboxamidoadenosine (CGS-21680, 2 mg/kg/day), A2A receptor antagonist 5-Amino-7-(β-phenylethyl)-2-([…])pyrazolo(4,3-e)-1,2,4-triazolo1,5-c pyrimidine (SCH-58261, 2 mg/kg/day), A3 receptor agonist [2-chloro-N^6-(3-iodobenzyl)adenosine-5′-N-methyluronamide (Cl-IBMECA 1 mg/kg/day), A3 receptor antagonist 3-Ethyl 5-benzyl 2-methyl-6-phenyl-4-phenylethynyl-1,4-(±)-dihydropyridine-3,5-dicarboxylate (MRS 1191 2 mg/kg/day) or vehicle (0.1% DMSO in PBS) was administered in a sterile 0.1-ml volume by intraperitoneal injection every 12 hours after surgery. The doses of the adenosine-receptor agonists' were chosen according to previous studies (Erdmann, et al, Blood 105: 4707, 4714, 2005; Hasko, et al, Faseb J 14: 2065-2074, 2000; Satoh, et al, Pancreas 24: 75-82, 2002; Satoh, Gastroenterology 119: 829-836, 2000). The adenosine receptor agonists and antagonists were obtained from Sigma Chemicals (St. Louis, Mo.).
# cardiac allografts [1] = assay: Heterotopic cardiac transplantation: graft survival; type: in vivo, mouse
# Protocol: (§1) Completely allomismatched murine heterotopic cardiac transplantation was performed for the present study, as previously described in detail by us^13. Two groups (n=6 in each group) were used to study donor sources of CD73 (CD73^+/+ or CD73^−/− donors into B10A recipients) and another two groups (n=6 in each group) were used to study recipient sources (B10A donors into CD73^+/+ or CD73^−/− recipients). In experiments of adenosine receptor modulators, CBA/J mice were used as donors or recipients instead of B10A mice (n=4 to 6 in each group, as indicated).
# Database management and statistical analysis were performed with the Statview version 5.0 software (SAS institute Inc., Cary, N.C.). All values are expressed as means±SEM. Kaplan-Meier analysis was performed to evaluate graft survival, and survival differences were compared by a log-rank test. Comparisons among groups were performed with an unpaired Student t test or one-way analysis of variance (ANOVA) where appropriate. Values of P<0.05 were considered statistically significant.
# (§2) To further evaluate the CD73-mediated contribution of specific AR subtypes during allograft rejection or CAV, we performed heterotopic cardiac transplantation using AR modulators given intraperitoneally. First, we examined which AR is acutely responsible for increased vascular leakage in the murine heterotopic cardiac transplantation model. […] Based on the results of this graft permeability assay, we selected A2AR agonists (A2A, CGS21680; A2B, NECA) to establish their potential effects on cardiac allograft rejection or vasculopathy. […] The next set of experiments was designed to measure the role of the A2BAR in CAV.
# cardiac allografts [2] = assay: Heterotopic cardiac transplantation: cardiac allograft vasculopathy, luminal occlusion of graft coronary arteries; type: in vivo, mouse; settings: day 30 post-transplantation, both CD73+/+ and CD73−/− donors or recipients, vs wild-type non-treatment controls
# Protocol: as §1, with “indicated). […]” for “indicated).”
# as §2
# [3] = system: endothelial cell line bEnd.3 with T lymphocytes; assay: Allomismatched simple coculture of endothelial cells and T lymphocytes; type: cell-based, mouse; settings: 72-h coculture with CD73−/− T-lymphocytes, addition of APCP
# Source text: (§3) T lymphocytes were purified from splenocytes of CD73^+/+ and CD73^−/− mice (H-2^b) using a Dynal mouse T cell negative isolation kit (Invitrogen). The BALB/c (H-2^d)-derived endothelial cell line bEnd.3 was obtained from American Type Culture Collection (Manassas, Va.).
# (§4) To further elucidate the effects of CD73 on interactions between endothelial cells and T lymphocytes found in cardiac allografts, we performed an allomismatched coculture of endothelial cells (H-2^d) and lymphocytes (H-2^b; CD73^+/+ or CD73^−/−) with or without APCP in vitro. First, we evaluated the contribution of T lymphocytes to endothelial cells on the simple coculture experiments. […] Next, we evaluated the contribution of endothelial cells to T lymphocytes utilizing transmigration coculture experiments.
# [4] = system: T lymphocytes transmigrating across bEnd.3 endothelial cells; assay: Allomismatched transmigration coculture of endothelial cells and T lymphocytes; type: cell-based, mouse
# Source text: as §3, §4
# tracheal allografts = assay: Orthotopic trachea transplant model: graft luminal occlusion and CD3 positive T cell infiltration; type: in vivo, mouse
# Source text: Two well-established tracheal transplant models were used to study the effect of CD73 on the pathogenesis of allograft rejection. The first model was the previously described double lumen airway (orthotopic) transplant model for studying chronic airway rejection (Harada, et al, Am J Physiol Lung Cell Mol Physiol 293: […]-130, 2007; Minamoto, et al, J Exp Med 202: 283-294, 2005). Briefly, after anesthesia, donor mice were exsanguinated, and whole trachea was harvested by transecting below the cricoid cartilage distal to the […] bifurcation under sterile conditions. Recipient mice were similarly anesthetized, and the whole trachea was exposed. Distal (the seventh intercartilaginous space) and proximal (immediately subjacent to the cricoid cartilage area) orifices positioned on the recipient trachea were anastomosed with both ends of the tracheal graft. This air permissive model mimics lymphocytic bronchitis and allows studies focusing on inflammation. All surgeries were performed using a Leitz-Wild surgical microscope (Urban Engineering, Burbank, Calif.) under ×16 magnifications. Grafts were harvested at the indicated time points and embedded en bloc in Tissue Freezing Medium (Triangle Biomedical Sciences, Durham, N.C.) in Disposable Base Molds (Richard-Allan Scientific, Kalamazoo, Mich.) in liquid nitrogen and stored at -80° C. until the time of analysis. For the orthotopic model histochemical staining was performed for elastin (Accustain; Sigma-Aldrich) to determine graft luminal occlusion on 5-μm-thick sections. Immunostaining was also performed using, serial adjacent sections from each group, with primary antibodies directed against a pan-T-cell marker (hamster anti-mouse CD3; BD Pharmingen, San Diego, Calif.). Morphometric measurements of cross-sectional areas were performed by blindly tracing both epithelial and subepithelial areas using a computer-assisted image analysis system (AxoCamHR; Carl Zeiss Microimaging, Thornwood, N.Y.). […]-130, 2007). Quantitative analysis of T cell infiltration was performed by manually counting the number of CD3-positive cells in epithelial and subepithelial layer under high-power magnified fields. […] The doses of the adenosine-receptor agonists' were chosen according to previous studies ([…], et al, Blood 105: 4707, 4714, 2005; Hasko, et al, Faseb J 14: 2065-2074, 2000; Satoh, et al, Pancreas 24: 75-82, 2002; Satoh, Gastroenterology 119: 829-836, 2000). The adenosine receptor agonists and antagonists were obtained from Sigma Chemicals (St. Louis, Mo.).
# [5] = CD73−/− donors or recipients, compared with wild-type non-treatment controls
# [6] = compared with non-treatment controls
smiles,measurement,setting,value
"CNC(=O)[C@H]1O[C@@H](n2cnc3c(NCc4cccc(I)c4)nc(Cl)nc32)[C@H](O)[C@@H]1O [Cl-IBMECA, 2-chloro-N^6-(3-iodobenzyl)adenosine-5′-N-methyluronamide]",expression of IFN-γ mRNA,IFN-γ and IL-2 mRNA,did not affect
CCNC(=O)[C@H]1O[C@@H](n2cnc3c(N)ncnc32)[C@H](O)[C@@H]1O [NECA],graft survival,cardiac allografts [1]; [5],significantly increased
same,graft survival compared with CGS21680-treated recipients,cardiac allografts [1]; NECA-treated vs CGS21680-treated recipients,significantly longer
same,graft survival,cardiac allografts [1]; [6],significantly increased
same,severity of luminal occlusion,cardiac allografts [2],significantly attenuated
"Nc1nc2c(cnn2CCc2ccccc2)c2nc(-c3ccco3)nn12 [SCH-58261, 5-Amino-7-(β-phenylethyl)-2-([…])pyrazolo(4,3-e)-1,2,4-triazolo1,5-c pyrimidine]",expression of IFN-γ mRNA,IFN-γ and IL-2 mRNA,did not affect
Nc1ncnc2c1ncn2[C@@H]1O[C@H](COP(=O)(O)CP(=O)(O)O)[C@@H](O)[C@H]1O [APCP],endothelial cell TNF-α mRNA upregulation,[3],significantly enhanced
same,endothelial cell VCAM-1 mRNA upregulation,[3],significantly enhanced
same,transmigration of T-lymphocytes,[4]; 24-h coculture of CD73−/− T-lymphocytes,significantly enhanced
same,IFN-γ mRNA upregulation in post-transmigrated T-lymphocytes,[4]; coculture of CD73−/− T-lymphocytes,no significant enhancement
"CCNC(=O)[C@H]1O[C@@H](n2cnc3c(N)nc(NCCc4ccc(CCC(=O)O)cc4)nc32)[C@H](O)[C@@H]1O [CGS-21680, 2-p-(2-carboxyethyl) phenethylamino-5′-N-ethylcarboxamidoadenosine]",CD3 positive cell infiltrations,"tracheal allografts; CD73−/− allografts, mean±SEM",79±28
same,luminal obliteration,"tracheal allografts; CD73−/− allografts, mean±SEM",36±3%
same,CD3 positive cell infiltrations,"tracheal allografts; wild type allografts, compared with vehicle",less
same,graft luminal obliteration,"tracheal allografts; wild type allografts, compared with vehicle, 1 week after transplantation, i.p. every 12 hours",significantly reduced
same,expression of IFN-γ mRNA,IFN-γ and IL-2 mRNA,down-regulated
same,expression of IL-2 mRNA,IFN-γ and IL-2 mRNA; wild type allografts,down-regulated
same,graft survival,cardiac allografts [1]; [5],no significant increase
same,graft survival,cardiac allografts [1]; [6],significantly increased
"CCOC(=O)C1=C(C)NC(c2ccccc2)=C(C(=O)OCc2ccccc2)C1C#Cc1ccccc1 (racemic) [MRS 1191, 3-Ethyl 5-benzyl 2-methyl-6-phenyl-4-phenylethynyl-1,4-(±)-dihydropyridine-3,5-dicarboxylate]",expression of IFN-γ mRNA,IFN-γ and IL-2 mRNA,did not affect
